Patent US8697691B2, “Alkyl 3-((2-amidoethyl)amino)-8-azabicyclo[3.2.1]octane-8-carboxylate analogs as selective M1 agonists and methods of making and using same” (Vanderbilt University, priority 2009, dated 2014)
pEC50: −log10 of the molar value. Read-outs that look alike come from different tables or passages of the source.

Target: T1, rat M1 receptor (Rattus norvegicus, UniProt P08482)
T1 construct: host or cells: CHO-K1
T1 sequence (P08482 1-460): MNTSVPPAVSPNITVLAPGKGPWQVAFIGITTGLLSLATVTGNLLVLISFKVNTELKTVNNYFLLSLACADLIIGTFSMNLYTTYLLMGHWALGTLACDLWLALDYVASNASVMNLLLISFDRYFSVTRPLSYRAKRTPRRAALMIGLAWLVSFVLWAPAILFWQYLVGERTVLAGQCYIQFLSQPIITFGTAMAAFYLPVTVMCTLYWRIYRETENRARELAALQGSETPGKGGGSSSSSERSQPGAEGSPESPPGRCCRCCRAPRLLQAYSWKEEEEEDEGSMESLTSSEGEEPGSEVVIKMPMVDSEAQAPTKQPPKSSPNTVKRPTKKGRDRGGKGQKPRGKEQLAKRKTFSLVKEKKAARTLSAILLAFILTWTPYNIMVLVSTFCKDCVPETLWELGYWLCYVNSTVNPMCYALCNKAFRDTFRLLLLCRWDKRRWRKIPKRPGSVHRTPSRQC
Test: Calcium mobilization assay, CHO-K1 cells stably expressing rat M1 (low throughput, Flexstation II)
Assay type: cell-based
Conditions: for Emax: CHO-K1, read-out: Efficacy (% Max ACh)
Description: Chinese hamster ovary (CHO-K1) cells stably expressing rat (r)M1 were purchased from the American Type Culture Collection and cultured according to their indicated protocol. CHO cells stably expressing human (h)M2, hM3, and hM5 were described previously (Levey et al., 1991); hM1 and hM4 cDNAs were purchased from Missouri S&T cDNA Resource; rM4 cDNA was provided by T. I. Bonner (National Institutes of Health, Bethesda, Md.). hM1, hM4, and rM4 cDNAs were used to stably transfect CHO-K1 cells purchased from the American Type Culture Collection using Lipofectamine2000. To make stable hM2, hM4 and rM4 cell lines for use in calcium mobilization assays, these cells also were stably transfected with a chimeric G-protein (Gqi5) (provided by B. R. Conklin, University of California, San Francisco) using Lipofectamine 2000. rM1, hM3, and hM5 cells were grown in Ham's F-12 medium containing 10% heat-inactivated fetal bovine serum (FBS), 20 mM HEPES, and 50 μg/mL G418 sulfate. hM2-Gqi5 and hM4-Gqi5 cells were grown in the same medium also containing 500 μg/mL Hygromycin B. Stable rM4-Gqi5 cells were grown in DMEM containing 10% heat-inactivated FBS, 20 mM HEPES, 400 μg/mL G418 sulfate, and 500 μg/mL Hygromycin B. The rat M1 Y381A orthosteric mutant receptor cDNA was generated using the Quik-Change site-directed mutagenesis kit (Stratagene) and verified by sequencing. CHO-K1 cells were stably transfected with this cDNA using Lipofectamine2000 and screened for expression based on calcium mobilization in response to the allosteric M1 agonist N-desmethylclozapine.
For low throughput measurement of agonist-evoked increases in intracellular calcium, CHO-K1 cells stably expressing muscarinic receptors were plated in 100 μL of growth medium at 5×10^4 (rM1, hM3, and hM5) or 6×10^4 cells per well (rM1 Y381A, hM2, and rM4) in Costar 96-well black-walled, tissue culture (TC)-treated, clear-bottom plates (Fisher). Cells were incubated overnight at 37° C. and 5% CO2. The next day, medium was removed from the cells, and they were incubated with 50 μL of 2 μM Fluo-4/acetoxymethyl ester (Invitrogen, Carlsbad, Calif.) prepared as a 2.3 mM stock in DMSO and mixed in a 1:1 ratio with 10% (w/v) Pluronic F-127 and diluted in assay buffer [HBSS (Invitrogen) supplemented with 20 mM HEPES and 2.5 mM probenecid, pH 7.4] for 1 h at 37° C. and 5% CO2. Dye was removed and replaced with 50 μL of assay buffer. For calcium fluorescence measurements, CRCs of compounds (50 μl, 2×) were added 19 s after the beginning of data collection via a Flexstation II (Molecular Devices, Sunnyvale, Calif.). Fluorescence imaging continued for a total of 130 s acquisition time using an excitation wavelength of 488 nm, an emission wavelength of 525 nm, and a cutoff wavelength of 515 nm. All of the peaks of the calcium response were normalized to the response to a maximally effective concentration of ACh (ECmax). These normalized peak calcium response values were fit using GraphPad Prism version 4.0 to a four-parameter logistic equation to determine EC50 values.

[1] = rat M1, agonist-evoked calcium mobilization in CHO-K1 cells, read-out: Potency (EC50)

SMILES | pEC50 | Emax [%] | pEC50 [1]
CCOC(=O)N1C2CCC1CC(NCCNC(=O)c1cccs1)C2 (centres unmarked) [Example 1, Ethyl 3-(2-(thiophene-2-carboxamido)ethylamino)-8-azabicyclo[3.2.1]octane-8-carboxylate] | 7.13 | 88 | –
CCOC(=O)N1C2CCC1CC(NCCNC(=O)c1ccccc1F)C2 (centres unmarked) [Example 2, Ethyl 3-(2-(2-fluorobenzamido)ethylamino)-8-azabicyclo[3.2.1]octane-8-carboxylate] | 7.16 | 103 | –
CCOC(=O)N1C2CCC1CC(NCCNC(=O)c1ccccc1C)C2 (centres unmarked) [Example 3, ethyl 3-({2-[(2-methylphenyl)formamido]-ethyl}amino)-8-azabicyclo[3.2.1]octane-8-carboxylate] | 7.07 | 81 | –
CCOC(=O)N1C2CCC1CC(NCCNC(=O)c1cccc(OC)c1)C2 (centres unmarked) [Example 4, ethyl 3-({2-[(3-methoxy-phenyl)formamido]-ethyl}amino)-8-azabicyclo[3.2.1]octane-8-carboxylate] | – | 81 | 6.68
CCOC(=O)N1C2CCC1CC(NCCNC(=O)c1ccc(F)cc1C(F)(F)F)C2 (centres unmarked) [Example 5, ethyl 3-[(2-{[4-fluoro-2-(trifluoromethyl)phenyl]-formamido}ethyl)-amino]-8-azabicyclo[3.2.1]octane-8-carboxylate] | – | 39 | –
CCOC(=O)N1C2CCC1CC(NCCNC(=O)c1ccc(F)cc1F)C2 (centres unmarked) [Example 6, ethyl 3-({2-[(2,4-difluorophenyl)formamido]-ethyl}amino)-8-azabicyclo[3.2.1]octane-8-carboxylate] | 7.14 | 82 | –
CCOC(=O)N1C2CCC1CC(NCCNC(=O)c1ccc(F)cc1Cl)C2 (centres unmarked) [Example 7, ethyl 3({2-[(2-chloro-4-fluorophenyl)formamido]-ethyl}amino)-8-azabicyclo[3.2.1]octane-8-carboxylate] | 7.02 | 95 | –
CCOC(=O)N1C2CCC1CC(NCCNC(=O)c1ccc(C)cc1)C2 (centres unmarked) [Example 8, ethyl 3-({2-[(4-methylphenyl)formamido]-ethyl}amino)-8-azabicyclo[3.2.1]octane-8-carboxylate] | – | 47 | –
CCOC(=O)N1C2CCC1CC(NCCNC(=O)c1cccc(C)c1)C2 (centres unmarked) [Example 9, ethyl 3-({2-[(3-methylphenyl)formamido]-ethyl}amino)-8-azabicyclo[3.2.1]octane-8-carboxylate] | – | 103 | 6.94
CCOC(=O)N1C2CCC1CC(NCCNC(=O)c1ccc(Cl)c(Cl)c1)C2 (centres unmarked) [Example 10, ethyl 3-({2-[(3,4-dichlorophenyl)formamido]-ethyl}amino)-8-azabicyclo[3.2.1]octane-8-carboxylate] | – | 49 | 5.99
CCOC(=O)N1C2CCC1CC(NCCNC(=O)c1ccc(C)c(C)c1)C2 (centres unmarked) [Example 11, ethyl 3-({2-[(3,4-dimethylphenyl)formamido]-ethyl}amino)-8-azabicyclo[3.2.1]octane-8-carboxylate] | – | 48 | –
CCOC(=O)N1C2CCC1CC(NCCNC(=O)c1ccc3c(c1)CCO3)C2 (centres unmarked) [Example 12, ethyl 3-{[2-(2,3-dihydro-1-benzofuran-5-ylformamido)ethyl]-amino}-8-azabicyclo[3.2.1]octane-8-carboxylate] | – | 31 | –
CCOC(=O)N1C2CCC1CC(NCCNC(=O)c1ccc(C)c(F)c1)C2 (centres unmarked) [Example 13, ethyl 3-({2-[(3-fluoro-4-methylphenyl)formamido]-ethyl}amino)-8-azabicyclo[3.2.1]octane-8-carboxylate] | – | 50 | 6.20
CCOC(=O)N1C2CCC1CC(NCCNC(=O)c1ccco1)C2 (centres unmarked) [Example 14, ethyl 3-{[2-(furan-2-ylformamido)ethyl]-amino}-8-azabicyclo[3.2.1]octane-8-carboxylate] | – | 24 | –
CCOC(=O)N1C2CCC1CC(NCCNC(=O)c1ccc(F)c(F)c1)C2 (centres unmarked) [Example 15, ethyl 3-({2-[(3,4-difluorophenyl)formamido]-ethyl}amino)-8-azabicyclo[3.2.1]octane-8-carboxylate] | – | 104 | 6.91
CCOC(=O)N1C2CCC1CC(NCCNC(=O)c1ccccn1)C2 (centres unmarked) [Example 16, ethyl 3-{[2-(pyridin-2-ylformamido)ethyl]-amino}-8-azabicyclo[3.2.1]octane-8-carboxylate] | – | 22 | –
CCOC(=O)N1C2CCC1CC(NCCNC(=O)c1ccc(Cl)cc1F)C2 (centres unmarked) [Example 17, ethyl 3-({2-[(4-chloro-2-fluorophenyl)formamido]-ethyl}amino)-8-azabicyclo[3.2.1]octane-8-carboxylate] | – | 20 | –
CCOC(=O)N1C2CCC1CC(NCCNC(=O)c1ccccc1)C2 (centres unmarked) [Example 18, ethyl 3-{[2-(phenylformamido)ethyl]-amino}-8-azabicyclo[3.2.1]octane-8-carboxylate] | 7.17 | 103 | –
CCOC(=O)N1C2CCC1CC(NCCNC(=O)Cc1ccccc1)C2 (centres unmarked) [Example 19, ethyl 3-{[2-(2-phenylacetamido)ethyl]-amino}-8-azabicyclo[3.2.1]octane-8-carboxylate] | – | 33 | –
CCOC(=O)N1C2CCC1CC(NCCNC(=O)Cc1cccs1)C2 (centres unmarked) [Example 20, ethyl 3-({2-[2-(thiophen-2-yl)acetamido]ethyl}-amino)-8-azabicyclo[3.2.1]octane-8-carboxylate] | – | 51 | –
CCOC(=O)N1C2CCC1CC(NCCNC(=O)c1c(F)cccc1F)C2 (centres unmarked) [Example 21, ethyl 3-({2-[(2,6-difluorophenyl)formamido]-ethyl}amino)-8-azabicyclo[3.2.1]octane-8-carboxylate] | – | 18 | 6.06
CCOC(=O)N1C2CCC1CC(NCCNC(=O)c1ccc(F)c(OC)c1)C2 (centres unmarked) [Example 22, ethyl 3-({2-[(4-fluoro-3-methoxyphenyl)formamido]-ethyl}amino)-8-azabicyclo[3.2.1]octane-8-carboxylate] | – | 12 | 5.83
CCOC(=O)N1C2CCC1CC(NCCNC(=O)c1ccc(F)c(C(F)(F)F)c1)C2 (centres unmarked) [Example 23, ethyl 3-[(2-{[4-fluoro-3-(trifluoromethyl)phenyl]-formamido}ethyl)amino]-8-azabicyclo[3.2.1]octane-8-carboxylate] | – | 47 | 5.57
CCOC(=O)N1C2CCC1CC(NCCNC(=O)c1ccc(Cl)cc1)C2 (centres unmarked) [Example 24] | – | 25 | 5.97
CCOC(=O)N1C2CCC1CC(NCCNC(=O)c1ccccc1Cl)C2 (centres unmarked) [Example 25, ethyl 3-({2-[(2-chlorophenyl)formamido]-ethyl}amino)-8-azabicyclo[3.2.1]octane-8-carboxylate] | – | 80 | 6.95
